Data reported in patent US20100305658A1 (priority 2004, published 2010).

Columns and labels:
[1] = system: glutamate release in ferret thalamic slices (A1 lamina of the LGN); assay: HFS-induced glutamate release in thalamic slices measured with a glutamate sensor; assay type: cell-based
[2] = system: GABAA receptors; assay: Extracellular recording of spontaneous spindle waves in LGN slice with GABAA receptors blocked; assay type: cell-based; settings: 20 μM in bath; ferret LGN slice; n=5 slices
Protocol: For the preparation of slices, 3-4 month old male or female ferrets (muftela putoriouf furo; Marshall Farms; North Rose, New York) were deeply anesthetized with sodium pentobarbital (30-40 mg/kg) and killed by decapitation. The forebrain was rapidly removed, and the hemispheres were separated with a midline incision. Four hundred micron thick slices were cut using a vibratome (Ted Pella, Inc.) in the sagittal plane. During preparation of slices, the tissue was placed in a solution (5° C.) in which NaCl was replaced with sucrose while maintaining an osmolarity of 307 mOsm to increase tissue viability. […]
Intracellular recording electrodes were formed on a Sutter Instruments P-2000 laser micropipette puller from medium-walled glass (WPI, 1B100F). […] The data was analyzed using Chart (eDaq) on a Pentium style computer and figures were drawn using Core1DRAW (Corel).
To test the functional effects of HFS-mediated glutamate release, simultaneous intracellular and extracellular recordings were made in the ferret lateral geniculate nucleus (LGN) in vitro slice preparation, which generates spontaneous spindle waves (FIG. 14; n=21). Spindle activity was recorded from a population of neurons (extracellular electrode), and the electrophysiological activity associated with the spindle activity was recorded from single neurons within that population. […]

[3] = system: striatal dopamine efflux (dopamine oxidation current); assay: STN stimulation-evoked striatal dopamine efflux, constant potential amperometry, effects of selective reuptake inhibitors; assay type: in vivo, rat; settings: post-drug, 20 mg/kg systemic injection, STN stimulation 15 pulses, 50 Hz, 300 μA

Compound: NC1=N[C@H](O)[C@H]2[C@H]3O[C@]4(O)O[C@@H]([C@@H](O)[C@@]2(N1)[C@@H]4O)[C@]3(O)CO [tetrodotoxin]
- block of glutamate release induced by HFS [1]: failed to block

Compound: picrotoxin
- effect on spontaneous spindle waves [2]: transformed into events that resemble absence-seizure-like activity

Compound: CN1Cc2c(N)cccc2C(c2ccccc2)C1 (stereo not shown) [nomifensine]
- recovery of dopamine efflux to prestimulation baseline levels (total duration) [3]: 2035 ± 132 ms
- STN electrical stimulation-evoked dopamine oxidation current (amplitude) ([3]; anaesthetized rat striatum): 765±38 pA
